One experiment deals with human CB2 receptors (Homo sapiens (Human), UniProt P34972). Briefly: cAMP assay, CHO cells expressing human CB2 receptors. Format: cell-based. The conditions noted are these: functional cAMP assay, CHO cells expressing human CB2; read-out: human CB2 EC50. As to the method:
(§1) CHO cells expressing human CB1 or CB2 receptors are seeded 17-24 hours prior to the experiment 50.000 cells per well in a black 96 well plate with flat clear bottom (Corning Costar #3904) in DMEM (Invitrogen No. 31331), 1×HT supplement, with 10% fetal calf serum and incubated at 5% CO2 and 37° C. in a humidified incubator. The growth medium was exchanged with Krebs Ringer Bicarbonate buffer with 1 mM IBMX and incubated at 30° C. for 30 min. Compounds were added to a final assay volume of 100 μl and incubated for 30 min at 30° C. Using the cAMP-Nano-TRF detection kit the assay (Roche Diagnostics) was stopped by the addition of 50 μl lysis reagent (Tris, NaCl, 1.5% Triton X100, 2.5% NP40, 10% NaN3) and 50 μl detection solutions (20 μM mAb Alexa700-cAMP 1:1, and 48 μM Ruthenium-2-AHA-cAMP) and shaken for 2 h at room temperature. The time-resolved energy transfer is measured by a TRF reader (Evotec Technologies GmbH), equipped with a ND:YAG laser as excitation source. The plate is measured twice with the excitation at 355 nm and at the emission with a delay of 100 ns and a gate of 100 ns, total exposure time 10 s at 730 (bandwidth 30 nm) or 645 nm (bandwidth 75 nm), respectively.
(§2) EC50 values were determined using Activity Base analysis (ID Business Solution, Limited).

The target of a further experiment is human CB1 receptors (Homo sapiens (Human), UniProt P21554). Briefly: cAMP assay, CHO cells expressing human CB1 receptors. Format: cell-based. As to the method:
as §1, §2
On the technique in general: cAMP levels reflect the balance of adenylyl cyclase and phosphodiesterase activity.

The mark [1] stands for this setting: functional cAMP assay, CHO cells expressing human CB1, read-out: human CB1 EC50.

pEC50: −log10 of the molar value. Read-outs that look alike come from different tables or passages of the source. Bounds are passed on as bounds.

In patent publication US9522886B2, “Pyridine derivatives” (Hoffmann-La Roche Inc., priority 2012, dated 2016) one finds EC50 data, which are given here for 26 compounds.

Usually pEC50 stands for the EC50 on a negative log10 scale, so that one unit is a factor of ten.

Sequence of human CB2 receptors (P34972 whole entry): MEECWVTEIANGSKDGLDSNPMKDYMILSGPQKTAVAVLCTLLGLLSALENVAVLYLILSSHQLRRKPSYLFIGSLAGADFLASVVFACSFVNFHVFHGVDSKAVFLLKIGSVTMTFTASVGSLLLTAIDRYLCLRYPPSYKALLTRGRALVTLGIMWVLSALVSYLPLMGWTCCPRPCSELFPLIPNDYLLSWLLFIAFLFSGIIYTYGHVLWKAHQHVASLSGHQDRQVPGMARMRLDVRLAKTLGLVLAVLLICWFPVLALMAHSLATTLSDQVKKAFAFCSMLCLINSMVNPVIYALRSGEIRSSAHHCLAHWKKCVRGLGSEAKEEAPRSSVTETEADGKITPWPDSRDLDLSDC
Sequence of human CB1 receptors (P21554 whole entry): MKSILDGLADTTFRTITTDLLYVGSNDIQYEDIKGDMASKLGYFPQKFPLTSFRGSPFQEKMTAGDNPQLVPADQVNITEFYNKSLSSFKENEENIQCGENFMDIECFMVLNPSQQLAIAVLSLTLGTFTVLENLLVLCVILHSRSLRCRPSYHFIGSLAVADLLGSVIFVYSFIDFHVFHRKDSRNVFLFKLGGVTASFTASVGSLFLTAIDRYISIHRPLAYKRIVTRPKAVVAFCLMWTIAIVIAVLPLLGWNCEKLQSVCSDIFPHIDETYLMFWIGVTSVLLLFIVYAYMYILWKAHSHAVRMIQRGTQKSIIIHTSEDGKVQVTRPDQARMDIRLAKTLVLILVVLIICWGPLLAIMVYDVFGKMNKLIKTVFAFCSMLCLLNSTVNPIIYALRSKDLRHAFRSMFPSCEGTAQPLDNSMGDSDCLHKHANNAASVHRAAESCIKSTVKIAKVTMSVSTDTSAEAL

In the case of `CNC(=O)CC1(NC(=O)c2ccc(C(F)(F)F)c(OCC3CC3)n2)COC1` [Example 39, 6-Cyclopropylmethoxy-5-trifluoromethyl-pyridine-2-carboxylic acid (3-methylcarbamoylmethyl-oxetan-3-yl)-amide], the pEC50 on human CB2 receptors was 6.22; at human CB1 receptors (setting [1]), under 5.00.
For `O=C(O)CC1(NC(=O)c2ccc(N3CC(F)(F)C3)c(OCC3CC3)n2)CS(=O)(=O)C1` [Example 56, (3-{[6-Cyclopropylmethoxy-5-(3,3-difluoro-azetidin-1-yl)-pyridine-2-carbonyl]-amino}-1,1-dioxo-1λ6-thietan-3-yl)-acetic acid] the same measures were 8.52 and under 5.00.
As for `CC(=O)N1CC(CC(N)=O)(NC(=O)c2ccc(N3CC(F)(F)C3)c(OCC3CC3)n2)C1` [Example 73, N-[1-Acetyl-3-(2-amino-2-oxoethyl)azetidin-3-yl]-6-(cyclopropylmethoxy)-5-(3,3-difluoroazetidin-1-yl)pyridine-2-carboxamide], the negative logarithm of the EC50 (pEC50) was 6.92 on human CB2 receptors and under 5.00 on human CB1 receptors (setting [1]).
Turning to `NC(=O)[C@H]1CCCC[C@@H]1NC(=O)c1ccc(C2CC2)c(OCC2CC2)n1` (stereo in doubt) [Example 16, (−)-trans-5-Cyclopropyl-6-cyclopropylmethoxy-pyridine-2-carboxylic acid (2-carbamoyl-cyclohexyl)-amide], the negative logarithm of the EC50 (pEC50) on human CB1 receptors (setting [1]) is 6.77.
With `NC(=O)C[C@@H](NC(=O)c1ccc(C2CC2)c(OCC2CC2)n1)c1cccc(Cl)c1` [Example 43, 5-Cyclopropyl-6-cyclopropylmethoxy-pyridine-2-carboxylic acid [(R)-2-carbamoyl-1-(3-chloro-phenyl)-ethyl]-amide], the pEC50 at human CB2 receptors was 6.98; at human CB1 receptors (setting [1]), under 5.00.
For `NC(=O)CC1(NC(=O)c2ccc(OCC3CC3)c(Cl)n2)COC1` [Example 47, 6-Chloro-5-cyclopropylmethoxy-pyridine-2-carboxylic acid (3-carbamoylmethyl-oxetan-3-yl)-amide], in that order: 6.10 and under 5.00.
Turning to `CN(C)C(=O)CC1(NC(=O)c2ccc(C3CC3)c(OCC3CC3)n2)COC1` [Example 40, 5-Cyclopropyl-6-cyclopropylmethoxy-pyridine-2-carboxylic acid (3-dimethylcarbamoylmethyl-oxetan-3-yl)-amide], the figures for the pEC50 on human CB2 receptors and on human CB1 receptors (setting [1]) were 6.46 and under 5.00, respectively.
In the case of `NC(=O)CC1(NC(=O)c2ccc(N3CC(F)(F)C3)c(OCC3CC3)n2)COC1` [Example 26, 6-Cyclopropylmethoxy-5-(3,3-difluoro-azetidin-1-yl)-pyridine-2-carboxylic acid (3-carbamoylmethyl-oxetan-3-yl)-amide], the pEC50 on human CB2 receptors was 8.25; at human CB1 receptors (setting [1]) it was under 5.00.
For `NC(=O)CC(NC(=O)c1ccc(N2CC(F)(F)C2)c(OCC2CC2)n1)C1CCOC1` (stereo not shown) [Example 67, N-[3-Amino-3-oxo-1-(oxolan-3-yl)propyl]-6-(cyclopropylmethoxy)-5-(3,3-difluoroazetidin-1-yl)pyridine-2-carboxamide] the same measures were 8.08 and under 5.00.
Consider `NC(=O)CC1(NC(=O)c2ccc(N3CC(F)(F)C3)c(OCC3CC3)n2)CCSCC1` [Example 62, 6-Cyclopropylmethoxy-5-(3,3-difluoro-azetidin-1-yl)-pyridine-2-carboxylic acid (4-carbamoylmethyl-tetrahydro-thiopyran-4-yl)-amide], for which the pEC50 is 8.60 on human CB2 receptors and under 5.00 at human CB1 receptors (setting [1]).
For the compound `COC(=O)CC1(NC(=O)c2ccc(N3CC(F)(F)C3)c(OCC3CC3)n2)CCOCC1` [Example 52, (4-{[6-Cyclopropylmethoxy-5-(3,3-difluoro-azetidin-1-yl)-pyridine-2-carbonyl]-amino}-tetrahydro-pyran-4-yl)-acetic acid methyl ester], the pEC50 at human CB2 receptors is 7.13; at human CB1 receptors (setting [1]), under 5.00.
For `NC(=O)CC1(NC(=O)c2ccc(C(F)(F)F)c(OCC3CCOCC3)n2)CS(=O)(=O)C1` [Example 78, N-[3-(2-Amino-2-oxoethyl)-1,1-dioxothietan-3-yl]-6-(oxan-4-ylmethoxy)-5-(trifluoromethyl)pyridine-2-carboxamide], the negative-log EC50 (pEC50) was 7.39 at human CB2 receptors and under 5.00 on human CB1 receptors (setting [1]).
Regarding `NC(=O)CC1(NC(=O)c2ccc(C3CC3)c(OCC3CC3)n2)COC1` [Example 23, 5-Cyclopropyl-6-cyclopropylmethoxy-pyridine-2-carboxylic acid (3-carbamoylmethyl-oxetan-3-yl)-amide], the pEC50 is 8.85 on human CB2 receptors and under 5.00 on human CB1 receptors (setting [1]).
For `CC(Oc1nc(C(=O)NC2(CC(N)=O)COC2)ccc1C1CC1)C(F)(F)F` (stereo not shown) [Example 33, 5-Cyclopropyl-6-(2,2,2-trifluoro-1-methyl-ethoxy)-pyridine-2-carboxylic acid (3-carbamoylmethyl-oxetan-3-yl)-amide], in that order: 6.84 and under 5.00.
On to `CC(=O)N1CCC(CC(N)=O)(NC(=O)c2ccc(C3CC3)c(Cc3ccc(F)cc3)n2)CC1` [Example 72, N-[1-Acetyl-4-(2-amino-2-oxoethyl)piperidin-4-yl]-5-cyclopropyl-6-[(4-fluorophenyl)methyl]pyridine-2-carboxamide], for which the pEC50 was 8.30 on human CB2 receptors and under 5.00 on human CB1 receptors (setting [1]).
As to `NC(=O)[C@@H]1CCCC[C@@H]1NC(=O)c1ccc(C2CC2)c(OCC2CC2)n1` (relative stereo) [Example 12, 5-Cyclopropyl-6-cyclopropylmethoxy-pyridine-2-carboxylic acid (rel-(1S,2R)-2-carbamoyl-cyclohexyl)-amide], the pEC50 at human CB1 receptors is under 5.00.
As to `NC(=O)CC1(NC(=O)c2ccc(N3CC(F)(F)C3)c(OCC3CC3)n2)CSC1` [Example 91, N-[3-(2-Amino-2-oxoethyl)thietan-3-yl]-6-(cyclopropylmethoxy)-5-(3,3-difluoroazetidin-1-yl)pyridine-2-carboxamide], the pEC50 at human CB1 receptors (setting [1]) was under 5.00.
Turning to `CC(C)[C@@H](CC(N)=O)NC(=O)c1ccc(C2CC2)c(OCC2CC2)n1` [Example 13, 5-Cyclopropyl-6-cyclopropylmethoxy-pyridine-2-carboxylic acid ((R)-1-carbamoylmethyl-2-methyl-propyl)-amide], the pEC50 at human CB2 receptors is 8.30.
Regarding `NC(=O)CC(NC(=O)c1ccc(N2CC(F)(F)C2)c(OCC2CC2)n1)C1CCOCC1` (stereo not shown) [Example 53, 6-Cyclopropylmethoxy-5-(3,3-difluoro-azetidin-1-yl)-pyridine-2-carboxylic acid [2-carbamoyl-1-(tetrahydro-pyran-4-yl)-ethyl]-amide], on human CB1 receptors (setting [1]), the pEC50 is under 5.00.
On to `CC(C)[C@H](CC(N)=O)NC(=O)c1ccc(C2CC2)c(OCC2CC2)n1` [Example 14, 5-Cyclopropyl-6-cyclopropylmethoxy-pyridine-2-carboxylic acid ((S)-1-carbamoylmethyl-2-methyl-propyl)-amide], for which, on human CB2 receptors, the pEC50 was 8.82.
As to `NC(=O)[C@@H]1CCCC[C@@H]1NC(=O)c1ccc(C2CC2)c(OCC2CC2)n1` (stereo in doubt) [Example 15, (+)-cis-5-Cyclopropyl-6-cyclopropylmethoxy-pyridine-2-carboxylic acid (2-carbamoyl-cyclohexyl)-amide], the pEC50 on human CB1 receptors is under 5.00.
Regarding `CCCCC(CC(N)=O)NC(=O)c1ccc(C2CC2)c(OCC2CC2)n1` (single isomer, unassigned; (+)) [Example 10, (+)-5-Cyclopropyl-6-cyclopropylmethoxy-pyridine-2-carboxylic acid (1-carbamoylmethyl-pentyl)-amide], the pEC50 at human CB2 receptors was 9.52.
In the case of `NC(=O)CC(NC(=O)c1ccc(N2CC(F)(F)C2)c(OCC2CC2)n1)C1CCOCC1` (single isomer, unassigned; (-)) [Example 58, (−)-6-Cyclopropylmethoxy-5-(3,3-difluoro-azetidin-1-yl)-pyridine-2-carboxylic acid [2-carbamoyl-1-(tetrahydro-pyran-4-yl)-ethyl]-amide], at human CB1 receptors (setting [1]), the pEC50 is under 5.00.
Consider `CCCCC(CC(N)=O)NC(=O)c1ccc(C2CC2)c(OCC2CC2)n1` (single isomer, unassigned; (-)) [Example 9, (−)-5-Cyclopropyl-6-cyclopropylmethoxy-pyridine-2-carboxylic acid (1-carbamoylmethyl-pentyl)-amide], for which the pEC50 on human CB2 receptors was 8.68.
Regarding `NC(=O)CC(NC(=O)c1ccc(N2CC(F)(F)C2)c(OCC2CC2)n1)C1CCOCC1` (single isomer, unassigned; (+)) [Example 59, (+)-6-Cyclopropylmethoxy-5-(3,3-difluoro-azetidin-1-yl)-pyridine-2-carboxylic acid [2-carbamoyl-1-(tetrahydro-pyran-4-yl)-ethyl]-amide], the pEC50 at human CB1 receptors (setting [1]) is under 5.00.
Consider `CN1CC(NC(=O)c2ccc(N3CC(F)(F)C3)c(OCC3CC3)n2)CC1=O` (stereo not shown) [Example 3, 6-Cyclopropylmethoxy-5-(3,3-difluoro-azetidin-1-yl)-pyridine-2-carboxylic acid (1-methyl-5-oxo-pyrrolidin-3-yl)-amide], for which the pEC50 at human CB1 receptors (setting [1]) was under 5.00.
